Values quoted from earlier work as cited in patent US5089474A, “Novel microproteins” (Roussel Uclaf, priority 1989, dated 1992).

Test system: trypsin
Details: statement in words on the known EETI II; cited from earlier work

In the case of EETI II, the “property of inhibiting trypsin” value is listed as “inhibiting trypsin”.
